The values below come from patent publication US9023789B2, “Amylin analogs and pharmaceutical compositions thereof” (Novo Nordisk A/S, priority 2012, dated 2015).

The target of data set [1] is T1, human amylin receptor (membranes from Amylin 3(a)/CRE-luc cells) (Homo sapiens, UniProt O60896+P30988).
T1 construct: expressed in transfected cells
T1 sequence (P30988 25-474): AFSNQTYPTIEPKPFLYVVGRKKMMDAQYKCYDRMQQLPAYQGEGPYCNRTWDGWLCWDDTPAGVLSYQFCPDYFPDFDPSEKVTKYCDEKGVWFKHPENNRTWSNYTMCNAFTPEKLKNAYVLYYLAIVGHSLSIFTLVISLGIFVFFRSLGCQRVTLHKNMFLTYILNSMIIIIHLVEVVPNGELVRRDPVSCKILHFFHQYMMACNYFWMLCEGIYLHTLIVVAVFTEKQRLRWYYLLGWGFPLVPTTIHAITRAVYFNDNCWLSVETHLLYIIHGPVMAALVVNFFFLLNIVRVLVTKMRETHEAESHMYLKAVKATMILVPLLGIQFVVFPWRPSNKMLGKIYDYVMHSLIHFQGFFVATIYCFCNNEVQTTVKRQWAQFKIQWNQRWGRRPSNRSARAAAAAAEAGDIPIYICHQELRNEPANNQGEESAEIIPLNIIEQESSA
T1 sequence (O60896 24-148 partner): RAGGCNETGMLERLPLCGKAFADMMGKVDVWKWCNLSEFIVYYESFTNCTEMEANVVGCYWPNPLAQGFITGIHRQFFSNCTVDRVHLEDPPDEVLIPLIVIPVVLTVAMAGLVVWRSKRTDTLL
Briefly: ASSAY (V) binding to the human amylin receptor (SPA, 125I-rat amylin).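 Also: competition binding of cell membranes (35 ng/µL) mixed with SPA beads in 384-well plates at 40 µL total volume, read by scintillation counting.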

A short description of data set [2]: ASSAY (IV) determination of solubility. Format: physicochemical. The gist of the method: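 Polypeptide in water at […] mixed 1:1 with 100 mM buffers of pH 3.0-8.0 (glycylglycine pH 3-5, bistrispropane pH 6-8). Held 18 h at room temperature, then centrifuged; concentration remaining in solution measured by UPLC.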
The target of data set [3] is T2, human amylin 3(a) receptor (human calcitonin receptor + RAMP-3) in BHK570 cells (Homo sapiens, UniProt O60896+P30988).
T2 construct: expressed in transfected cells
Briefly: ASSAY (II)a functional assay, human amylin receptor (CRE luciferase). Format: cell-based. The gist of the method: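 Ligand exposure 3 h at 37 °C, 5% CO2 in DMEM with 10% FBS, 10 mM Hepes pH 7.4. cAMP-driven luciferase read by luminescence after 30 min LucLite at room temperature.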

SMILES strings stand for the structures. Values after ≈ are worked out from the molar mass of the structure shown. Read-outs that look alike come from different tables or passages of the source. Numbered stars: 1 amine (or outer) side, 2 acyl side, 3 side chain; on linkers, the order of the positions; unused ones are H or OH. Bridge positions count the residues as written; N and C are the ends. Peptide text beside a SMILES is read from it. * marks the point of attachment. C20 diacid = O=C(O)CCCCCCCCCCCCCCCCCCC(=O)*; γGlu = O=C(O)[C@H](CCC(=O)[*:2])N[*:1]

As for `CC[C@H](C)[C@H](NC(=O)[C@H](C)NC(=O)CNC(=O)[C@H](Cc1ccccc1)NC(=O)[C@H](CC(N)=O)NC(=O)[C@@H]1CCCN1C(=O)[C@H](CO)NC(=O)[C@H](CO)NC(=O)[C@H](Cc1c[nH]cn1)NC(=O)[C@H](CCCNC(=N)N)NC(=O)[C@H](CC(C)C)NC(=O)[C@H](Cc1ccccc1)NC(=O)[C@H](Cc1c[nH]cn1)NC(=O)[C@H](C)NC(=O)[C@H](CC(C)C)NC(=O)[C@H](CCCNC(=N)N)NC(=O)[C@H](CCC(N)=O)NC(=O)[C@@H](NC(=O)[C@H](C)NC(=O)[C@@H]1CSSC[C@H](NC(=O)[C@H](CCCNC(=N)N)NC(=O)CNC(=O)CC[C@H](NC(=O)CCCCCCCCCCCCCCCCCCC(=O)O)C(=O)O)C(=O)N[C@@H](CC(N)=O)C(=O)N[C@@H]([C@@H](C)O)C(=O)N[C@@H](C)C(=O)N[C@@H]([C@@H](C)O)C(=O)N1)[C@@H](C)O)C(=O)N1CCC[C@H]1C(=O)N[C@@H](CO)C(=O)N[C@@H](CO)C(=O)N[C@H](C(=O)N[C@@H](CC(N)=O)C(=O)N[C@H](C(=O)NCC(=O)N[C@@H](CO)C(=O)N[C@@H](CC(N)=O)C(=O)N[C@H](C(=O)N[C@@H](Cc1ccc(O)cc1)C(N)=O)[C@@H](C)O)C(C)C)[C@@H](C)O` [Example 99] ({C20 diacid-γGlu}-GRCNTATCATQRLAHFLRHSSPNFGAIPSSTNVGSNTY-NH2; disulfide 3-8), the “Ratio hCT/hAmylin binding” value in data set [1] (Table 5, selectivity, hCTR bind IC50 / hAmylin-R bind IC50) came out at 100.4; in data set [1] (Table 5a, selectivity, hCTR bind IC50 / hAmylin-R bind IC50) it was 100.4; in data set [1] (Table 5b, selectivity, hCTR bind IC50 / hAmylin-R bind IC50), 100.4; in data set [1] (Table 5c, selectivity, hCTR bind IC50 / hAmylin-R bind IC50) it was 100.4; in data set [1] (Table 7, human binding selectivity, included for comparison), 100.4; in data set [1] (Table 7a (preferred compounds), human binding selectivity, included for comparison), 100.4. The “Ratio hCT/hAmylin binding” value in data set [1] (ratio of human calcitonin receptor binding IC50 to human amylin receptor binding IC50) is on record as 100.4. Moreover, the solubility at 18 h in data set [2] (bistrispropane buffer, pH 6.5, read-out: Solubility pH 6.5 Concentration) was no less than 200 µM; in data set [2] (bistrispropane buffer, pH 7.5, read-out: Solubility pH 7.5 Concentration), 94 µM (≈ 422 µg/mL); in data set [2] (bistrispropane buffer, pH 6.0, read-out: Solubility pH 6.0 Concentration), no less than 200 µM; in data set [2] (bistrispropane buffer, pH 7.0, read-out: Solubility pH 7.0 Concentration), 154 µM (≈ 691 µg/mL); in data set [2] (bistrispropane buffer, pH 8.0, read-out: Solubility pH 8.0 Concentration) it was 120 µM (≈ 539 µg/mL); in data set [2] (glycylglycine buffer, pH 3.0, read-out: Solubility pH 3.0 Concentration) it was no less than 200 µM. Besides, the solubility at 18 h in data set [2] (glycylglycine buffer, pH 4.0, read-out: Solubility pH 4.0 Concentration) is no less than 200 µM; in data set [2] (glycylglycine buffer, pH 5.0, read-out: Solubility pH 5.0 Concentration), no less than 200 µM. Further, the “Ratio hCT/hAmylin funct.” value in data set [3] (hCTR funct. EC50 divided by hAmylin-R funct. EC50), in data set [3] (hCTR funct. EC50 over hAmylin-R funct. EC50) and in data set [3] (human functional selectivity: hCTR funct. EC50 / hAmylin-R funct. EC50) was 10.0 throughout.
